Data: US12398154B2, “Azaquinazoline pan-KRas inhibitors” (Mirati Therapeutics, Inc., priority 2020, dated 2025)

How the values were obtained:
[1] = target: KRas G12R (Homo sapiens, UniProt P01116, G12R); experiment: biochemical;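 further: TR-FRET displacement assay of compound binding to KRas, read after one hour at room temperature, potency from a four-parameter fit of percent-of-control values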
Method: (§1) The ability of a compound to bind to KRas was measured using a TR-FRET displacement assay. […] After a 60-minute incubation at room temperature, the reaction was measured using a BMG LABTECH CLARIO star Plus via TR-FRET. […] The POC values were fit to a 4-parameter IC50 equation and the IC50 value reported.

[2] = test system: pERK in MKN1 cells; experiment: Inhibition of KRas phosphorylation of ERK (Cisbio HTRF pERK assay); details: Homo sapiens, MKN-1, 3 h, read-out: Inhibition (HTRF IC50) of KRas-mediated Phosphorylation of ERK, MKN1
Method: (§2) To harvest cells from flask using 0.05% Trypsin/EDTA solution. Add 10 mL of media to stop trypsinizing. Pipette the cells into a conical bottom 50 mL centrifuge tube and centrifuge 5 min×1000 rpm. • 2. Re-suspend the cell pellet in media, take a cell count, and then adjust the cell density using fresh media. • 3. Seed 6,000 cells into cell culture plate with 50 μL media. […] Incubate cell plate overnight in a 37° C., 5% CO2 incubator. • Compound titrations • 1. Use Tecan to complete the compound addition. Compounds start from 10 uM top, 3-fold dilution, and 10 doses. The final DMSO concentration is 0.8%. Dispensed 0.2 uM Trametinib as Min control. • 2. Incubate cell plate for 3 hrs in the incubator. • Detection with cisbio pERK HTRF kit • 1. […] At the end of the compound treatment, flick-off the media. • 3. Add 35 μL of lysis buffer per well using a Multidrop Combi. Then place on a plate agitator shaking at 300 rpm at 4° C. for 40 mins. • 4. Make up the HTRF antibody buffer. For each assay plate, mix 50 μL of d2-conjugate antibody with 950 μL of detection buffer. Similarly, mix 50 μL of Cryptate antibody with 950 μL of detection buffer. Then mix the two diluted antibodies together. • 5. Dispense 3.4 μL the antibody buffer to wells of an empty assay plate. Seal the plate and centrifuge plate 30 sec×1000 rpm. • 6. At the end of the 4° C. lysis, centrifuge the lysate plates 3 mins×1500 rpm. • 7. Use the Bravo to transfer 13.6 μL of lysate from cell culture plate to assay plate.
(§3) Then incubate assay plate for 2 hrs at room temperature. […] At the end of incubation, read plate on the Envision after centrifuging plate 30 sec× • 1000 rpm.

[3] = target: KRas WT (Homo sapiens, UniProt P01116); experiment: biochemical;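 further: binding to KRas read as TR-FRET displacement after a one-hour room-temperature incubation, IC50 derived from percent-of-control values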
Method: as §1

[4] = test system: pERK in HCT116 cells; experiment: Inhibition of KRas phosphorylation of ERK (Cisbio HTRF pERK assay); details: Homo sapiens, HCT-116, read-out: Inhibition (HTRF IC50) of KRas-mediated Phosphorylation of ERK, HCT116
[5] = target: KRas G12C (Homo sapiens, UniProt P01116, G12C); experiment: biochemical;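 further: binding to KRas assessed by TR-FRET displacement after one hour incubation at room temperature, potency fitted from percent-of-control values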
Method: as §1

[6] = target: KRas G12V (Homo sapiens, UniProt P01116, G12V); experiment: biochemical;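 further: KRas binding measured by TR-FRET displacement at room temperature, IC50 fitted from percent of control values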
Method: as §1

[7] = target: KRas G12S (Homo sapiens, UniProt P01116, G12S); experiment: biochemical;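 further: TR-FRET displacement binding to KRas, read after one hour incubation at room temperature, IC50 from four-parameter fit of percent of control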
Method: as §1

[8] = target: KRas G12D (Homo sapiens, UniProt P01116, G12D); experiment: biochemical;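 further: TR-FRET displacement binding assay on KRas, read after a one-hour incubation at room temperature, IC50 fitted from percent-of-control values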
Method: as §1

[9] = test system: pERK in H727 cells; experiment: Inhibition of KRas phosphorylation of ERK (Cisbio HTRF pERK assay); details: Homo sapiens, NCI-H727, read-out: Inhibition (HTRF IC50) of KRas-mediated Phosphorylation of ERK, H727
[10] = target: KRas G12A (Homo sapiens, UniProt P01116, G12A); experiment: biochemical;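 further: binding to KRas measured by TR-FRET displacement after one hour at room temperature, IC50 from a four-parameter fit of percent-of-control values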
Method: as §1

[11] = test system: pERK in PSN1 cells; experiment: Inhibition of KRas phosphorylation of ERK (Cisbio HTRF pERK assay); details: Homo sapiens, PSN1, 3 h, read-out: Inhibition (HTRF IC50) of KRas-mediated Phosphorylation of ERK, PSN1
[12] = test system: pERK in ASPC1 cells; experiment: as above; details: Homo sapiens, ASPC1, read-out: Inhibition (HTRF IC50) of KRas-mediated Phosphorylation of ERK, AsPC-1
Method: as §2, §3

KRas G12V, sequence (P01116 1-169 isoform P01116-2 G12V): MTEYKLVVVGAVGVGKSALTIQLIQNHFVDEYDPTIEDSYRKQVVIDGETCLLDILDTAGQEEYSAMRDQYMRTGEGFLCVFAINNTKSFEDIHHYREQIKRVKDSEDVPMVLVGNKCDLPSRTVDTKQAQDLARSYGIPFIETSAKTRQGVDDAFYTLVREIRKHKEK
KRas G12D, sequence (P01116 1-169 isoform P01116-2 G12D): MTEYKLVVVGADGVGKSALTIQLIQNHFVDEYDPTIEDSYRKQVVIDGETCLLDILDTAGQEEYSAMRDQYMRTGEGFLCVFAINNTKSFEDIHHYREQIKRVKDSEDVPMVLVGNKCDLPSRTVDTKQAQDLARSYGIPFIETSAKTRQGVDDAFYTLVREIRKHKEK
KRas G12R, sequence (P01116 1-169 isoform P01116-2 G12R): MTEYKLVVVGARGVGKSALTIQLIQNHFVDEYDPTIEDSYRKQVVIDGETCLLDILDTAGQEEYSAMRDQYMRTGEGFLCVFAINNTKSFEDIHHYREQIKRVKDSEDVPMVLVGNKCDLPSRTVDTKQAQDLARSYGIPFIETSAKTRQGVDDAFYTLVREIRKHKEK
KRas WT, sequence (P01116 1-169 isoform P01116-2): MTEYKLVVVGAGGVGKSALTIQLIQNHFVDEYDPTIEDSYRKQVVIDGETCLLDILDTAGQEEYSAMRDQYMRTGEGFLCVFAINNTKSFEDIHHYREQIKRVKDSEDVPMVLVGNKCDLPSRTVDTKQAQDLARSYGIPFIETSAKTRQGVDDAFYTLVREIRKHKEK
KRas G12C, sequence (P01116 1-169 isoform P01116-2 G12C): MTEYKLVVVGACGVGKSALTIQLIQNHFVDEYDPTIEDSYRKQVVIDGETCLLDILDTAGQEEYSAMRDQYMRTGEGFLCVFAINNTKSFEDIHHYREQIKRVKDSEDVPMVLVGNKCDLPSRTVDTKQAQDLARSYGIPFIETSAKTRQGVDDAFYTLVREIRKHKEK
KRas G12S, sequence (P01116 1-169 isoform P01116-2 G12S): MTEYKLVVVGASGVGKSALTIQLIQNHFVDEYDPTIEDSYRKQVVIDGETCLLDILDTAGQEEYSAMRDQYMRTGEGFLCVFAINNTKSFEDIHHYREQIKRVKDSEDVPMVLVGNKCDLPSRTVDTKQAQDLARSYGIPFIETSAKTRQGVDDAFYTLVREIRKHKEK
KRas G12A, sequence (P01116 1-169 isoform P01116-2 G12A): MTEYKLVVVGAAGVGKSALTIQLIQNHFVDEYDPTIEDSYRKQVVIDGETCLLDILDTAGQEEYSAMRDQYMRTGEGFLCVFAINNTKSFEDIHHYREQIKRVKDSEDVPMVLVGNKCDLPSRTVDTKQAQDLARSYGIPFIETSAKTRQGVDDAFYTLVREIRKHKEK

Row | SMILES | IC50 [1] | IC50 [2] | IC50 [3] | IC50 [4] | IC50 [5] | IC50 [6] | IC50 [7] | IC50 [8] | IC50 [9] | IC50 [10] | IC50 [11] | IC50 [12]
1 | CCc1c(F)ccc2cc(O)cc(-c3ncc4c(N5CCC[C@]6(CC(=O)N6)C5)nc(OCC5(CN6CCCC6)CC5)nc4c3F)c12 [Example 319, (S)-6-(7-(8-ethyl-7-fluoro-3-hydroxynaphthalen-1-yl)-8-fluoro-2-((1-(pyrrolidin-1-ylmethyl)cyclopropyl)methoxy)pyrido[4,3-d]pyrimidin-4-yl)-1,6-diazaspiro[3.5]nonan-2-one] | ≤ 2 nM | 120 nM | ≤ 2 nM | 6360 nM | ≤ 2 nM | ≤ 2 nM | ≤ 2 nM | ≤ 2 nM | 808 nM | ≤ 2 nM | ≥ 10000 nM | 433 nM
2 | CCc1c(F)ccc2cc(O)cc(-c3ncc4c(N5CCC[C@]6(C5)NC(=O)NC6=O)nc(OCC5(CN6CCCC6)CC5)nc4c3F)c12 [Example 322, (R)-7-(7-(8-ethyl-7-fluoro-3-hydroxynaphthalen-1-yl)-8-fluoro-2-((1-(pyrrolidin-1-ylmethyl)cyclopropyl)methoxy)pyrido[4,3-d]pyrimidin-4-yl)-1,3,7-triazaspiro[4.5]decane-2,4-dione] | ≤ 2 nM | 32 nM | ≤ 2 nM | 300 nM | ≤ 2 nM | ≤ 2 nM | – | ≤ 2 nM | 255 nM | – | 9090 nM | 484 nM
3 | CCc1c(F)ccc2cc(O)cc(-c3ncc4c(NCC5CC(=O)NC5=O)nc(OC[C@@]56CCCN5C[C@H](F)C6)nc4c3F)c12 (stereo partly drawn) [Example 367, 3-(((7-(8-ethyl-7-fluoro-3-hydroxynaphthalen-1-yl)-8-fluoro-2-(((2R,7aS)-2-fluorohexahydro-1H-pyrrolizin-7a-yl)methoxy)pyrido[4,3-d]pyrimidin-4-yl)amino)methyl)pyrrolidine-2,5-dione] | ≤ 2 nM | 58 nM | – | 375 nM | – | ≤ 2 nM | – | ≤ 2 nM | 244 nM | – | ≥ 10000 nM | 505 nM
4 | C#Cc1c(F)ccc2cc(O)cc(-c3ncc4c(N5CCCC6(CNC6=O)C5)nc(OC[C@@]56CCCN5C[C@H](F)C6)nc4c3F)c12 (stereo partly drawn) [Example 392, 6-(7-(8-ethynyl-7-fluoro-3-hydroxynaphthalen-1-yl)-8-fluoro-2-(((2R,7aS)-2-fluorohexahydro-1H-pyrrolizin-7a-yl)methoxy)pyrido[4,3-d]pyrimidin-4-yl)-2,6-diazaspiro[3.5]nonan-1-one] | 3 nM | 336 nM | – | 2250 nM | – | 3 nM | – | ≤ 2 nM | 1370 nM | – | 6020 nM | 1180 nM
5 | OCC1COCCN(c2nc(OC[C@@]34CCCN3C[C@H](F)C4)nc3c(F)c(-c4cc(O)cc5ccc(F)c(Br)c45)ncc23)C1 (stereo partly drawn) [Example 401, 5-bromo-6-fluoro-4-(8-fluoro-2-(((2R,7aS)-2-fluorohexahydro-1H-pyrrolizin-7a-yl)methoxy)-4-(6-(hydroxymethyl)-1,4-oxazepan-4-yl)pyrido[4,3-d]pyrimidin-7-yl)naphthalen-2-ol] | ≤ 2 nM | 82 nM | – | 1150 nM | – | ≤ 2 nM | – | ≤ 2 nM | 253 nM | – | 9960 nM | 162 nM
6 | O=C1NC(=O)C2CN(c3nc(OC[C@@]45CCCN4C[C@H](F)C5)nc4c(F)c(-c5cc(O)cc6ccc(F)c(Br)c56)ncc34)CC12 (stereo partly drawn) [Example 404, 5-(7-(8-bromo-7-fluoro-3-hydroxynaphthalen-1-yl)-8-fluoro-2-(((2R,7aS)-2-fluorohexahydro-1H-pyrrolizin-7a-yl)methoxy)pyrido[4,3-d]pyrimidin-4-yl)tetrahydropyrrolo[3,4-c]pyrrole-1,3(2H,3aH)-dione] | ≤ 2 nM | 55 nM | – | 1380 nM | – | ≤ 2 nM | – | ≤ 2 nM | 822 nM | – | ≥ 10000 nM | 136 nM
7 | O=C1NCC2(CCCN(c3nc(OC[C@@]45CCCN4C[C@H](F)C5)nc4c(F)c(-c5cc(O)cc6ccc(F)c(Br)c56)ncc34)C2)N1 (stereo partly drawn) [Example 409, 7-(7-(8-bromo-7-fluoro-3-hydroxynaphthalen-1-yl)-8-fluoro-2-(((2R,7aS)-2-fluorohexahydro-1H-pyrrolizin-7a-yl)methoxy)pyrido[4,3-d]pyrimidin-4-yl)-1,3,7-triazaspiro[4.5]decan-2-one] | ≤ 2 nM | 94 nM | – | 1180 nM | – | ≤ 2 nM | – | ≤ 2 nM | 593 nM | – | ≥ 10000 nM | 398 nM

The remaining lines, values ahead:

Row | IC50 [1] | IC50 [2] | IC50 [3] | IC50 [4] | IC50 [5] | IC50 [6] | IC50 [7] | IC50 [8] | IC50 [9] | IC50 [10] | IC50 [11] | IC50 [12] | SMILES
8 | ≤ 2 nM | 157 nM | – | 602 nM | – | ≤ 2 nM | – | ≤ 2 nM | 603 nM | – | 3150 nM | 365 nM | O=C1NC(=O)C2(CCCN(c3nc(OC[C@@]45CCCN4C[C@H](F)C5)nc4c(F)c(-c5cc(O)cc6ccc(F)c(Br)c56)ncc34)C2)N1 (stereo partly drawn) [Example 410, 7-(7-(8-bromo-7-fluoro-3-hydroxynaphthalen-1-yl)-8-fluoro-2-(((2R,7aS)-2-fluorohexahydro-1H-pyrrolizin-7a-yl)methoxy)pyrido[4,3-d]pyrimidin-4-yl)-1,3,7-triazaspiro[4.5]decane-2,4-dione]
9 | 3 nM | 33 nM | – | 484 nM | – | ≤ 2 nM | – | ≤ 2 nM | 408 nM | – | 2530 nM | 479 nM | O=C1NC(=O)[C@]2(CCCN(c3nc(OC[C@@]45CCCN4C[C@H](F)C5)nc4c(F)c(-c5cc(O)cc6ccc(F)c(Cl)c56)ncc34)C2)N1 [Example 413, (R)-7-(7-(8-chloro-7-fluoro-3-hydroxynaphthalen-1-yl)-8-fluoro-2-(((2R,7aS)-2-fluorohexahydro-1H-pyrrolizin-7a-yl)methoxy)pyrido[4,3-d]pyrimidin-4-yl)-1,3,7-triazaspiro[4.5]decane-2,4-dione]
10 | 4 nM | 32 nM | – | 514 nM | – | ≤ 2 nM | – | ≤ 2 nM | 269 nM | – | 3480 nM | 1330 nM | NS(=O)(=O)CC1CCCN(c2nc(OC[C@@]34CCCN3C[C@H](F)C4)nc3c(F)c(-c4cc(O)cc5ccc(F)c(Cl)c45)ncc23)C1 (stereo partly drawn) [Example 414, 1-(1-(7-(8-chloro-7-fluoro-3-hydroxynaphthalen-1-yl)-8-fluoro-2-(((2R,7aS)-2-fluorotetrahydro-1H-pyrrolizin-7a(5H)-yl)methoxy)pyrido[4,3-d]pyrimidin-4-yl)piperidin-3-yl)methanesulfonamide]
11 | 3 nM | 46 nM | – | 2560 nM | – | 40 nM | – | ≤ 2 nM | 903 nM | – | ≥ 10000 nM | 548 nM | O=C1NC[C@]2(CCCN(c3nc(OC[C@@]45CCCN4C[C@H](F)C5)nc4c(F)c(-c5cc(O)cc6ccc(F)c(Cl)c56)ncc34)C2)N1 [Example 415, (S)-7-(7-(8-chloro-7-fluoro-3-hydroxynaphthalen-1-yl)-8-fluoro-2-(((2R,7aS)-2-fluorohexahydro-1H-pyrrolizin-7a-yl)methoxy)pyrido[4,3-d]pyrimidin-4-yl)-1,3,7-triazaspiro[4.5]decan-2-one]
12 | 4 nM | 56 nM | – | 1310 nM | – | ≤ 2 nM | – | 3 nM | 366 nM | – | ≥ 10000 nM | 859 nM | OCC1COCCN(c2nc(OC[C@@]34CCCN3C[C@H](F)C4)nc3c(F)c(-c4cc(O)cc5ccc(F)c(Cl)c45)ncc23)C1 (stereo partly drawn) [Example 420, 5-chloro-6-fluoro-4-(8-fluoro-2-(((2R,7aS)-2-fluorohexahydro-1H-pyrrolizin-7a-yl)methoxy)-4-(6-(hydroxymethyl)-1,4-oxazepan-4-yl)pyrido[4,3-d]pyrimidin-7-yl)naphthalen-2-ol]
13 | ≤ 2 nM | 18 nM | – | 172 nM | – | ≤ 2 nM | – | ≤ 2 nM | 239 nM | – | 3760 nM | 1150 nM | Cc1c(F)ccc2cc(O)cc(-c3ncc4c(N5CCCC(CS(N)(=O)=O)C5)nc(OC[C@@]56CCCN5C[C@H](F)C6)nc4c3F)c12 (stereo partly drawn) [Example 461, 1-(1-(8-fluoro-7-(7-fluoro-3-hydroxy-8-methylnaphthalen-1-yl)-2-(((2R,7aS)-2-fluorohexahydro-1H-pyrrolizin-7a-yl)methoxy)pyrido[4,3-d]pyrimidin-4-yl)piperidin-3-yl)methanesulfonamide]
